What was measured:
Format in all cases: in vivo
[1] = tested on: Poa annua golf course fairway; assay: Turf study, clipping weights on golf course fairway; conditions: for Clipping weight (grams) per plot, 24-June / Clipping weight (grams) per plot, 10-June / Clipping weight (grams) per plot, 17-June / Clipping weight (grams) per plot, 3-July / Clipping weight (grams) per plot, 4-June: 3 applications on a 4 week schedule; for Clipping weight (grams) per plot, 24-June / Clipping weight (grams) per plot, 10-June / Clipping weight (grams) per plot, 17-June / Clipping weight (grams) per plot, 3-July / Clipping weight (grams) per plot, 4-June / Clipping weight (grams) per plot, Cumulative Clipping total: g ai/ha: TXP 96, CJN 50, TXP + cis-jasmone 72 + 50; for Clipping weight (grams) per plot, 24-June: check 11.95; for Clipping weight (grams) per plot, 10-June: check 12.1; for Clipping weight (grams) per plot, 17-June: check 13.8; for Clipping weight (grams) per plot, 3-July: check 15.7; for Clipping weight (grams) per plot, 4-June: check 21.5; for Clipping weight (grams) per plot, Cumulative Clipping total: total over all rating dates (not all shown), check 194
Experimental: A study was conducted on Poa annua golf course […], to compare the effects of treatment with cis-jasmone alone, trinexapac-ethyl alone, and combinations of cis-jasmone and trinexapac-ethyl. Clipping weights were measured at regular intervals.

[2] = tested on: barley; assay: Trial in Switzerland, growth regulation (plant height) on barley; conditions: rates g AI/ha: TXP (Moddus EC250) 75, CJN (EC300) 50, TXP + CJN 75 + 50, untreated check 89
Text: A trial was setup in Switzerland to compare growth regulation effects of trinexapac-ethyl, cis-jasmone, and mixtures of trinexapac-ethyl and cis-jasmone on barley. Assessments of plant height were made 21 days after application.

[3] = tested on: winter rye (Rekrut); assay: Glasshouse trial, lodging after leaf spray at growth stage 30, winter rye; conditions: untreated check 18.9
Text: (§1) A glasshouse trial was setup to compare growth regulation effects of trinexapac-ethyl, cis-jasmone, and mixtures of trinexapac-ethyl and cis-jasmone at various rates, on summer barley (Pasadena) and winter rye (Rekrut). Each treatment was applied as a spray to the leaves of the plant at plant growth stage 30 (start of stem elongation). Assessments of lodging were made 30 days after application; the results are expressed as percentage lodging in Table 2. [table]

[4] = tested on: summer barley (Pasadena); assay: Glasshouse trial, lodging after leaf spray at growth stage 30, summer barley; conditions: for % lodging 30 DAA: summer barley, untreated check 32.2
Text: as §1

[5] = Treatment 2: TXP (Moddus) 200 g AI/ha
[6] = Treatment 3: TXP (Moddus) 100 g AI/ha

SMILES	Clipping weight (grams) per plot, 24-June [1]	Clipping weight (grams) per plot, 10-June [1]	Clipping weight (grams) per plot, 17-June [1]	Clipping weight (grams) per plot, 3-July [1] [a grams]	Clipping weight (grams) per plot, 4-June [1]	effect on clipping weights, in words ([1]; Poa annua turf, compared to the untreated control)	Clipping weight (grams) per plot, Cumulative Clipping total [1]	Plant height (cm) 21DAA [2] [cm]	% lodging 30 DAA ([3]; Treatment 4: CJN 300 g AI/ha) [%]	% lodging 30 DAA ([3]; Treatment 5: CJN 150 g AI/ha) [%]	% lodging 30 DAA ([4]; Treatment 4: CJN 300 g AI/ha) [%]	% lodging 30 DAA ([4]; Treatment 5: CJN 150 g AI/ha) [%]	effect on lodging, in words ([4]; text summary for summer barley and winter rye, cis-jasmone treatments 4 and 5 compared to treatment 1 (untreated))	% lodging 30 DAA [3, 5] [%]	% lodging 30 DAA [3, 6] [%]	% lodging 30 DAA [4, 5] [%]	% lodging 30 DAA [4, 6] [%]
CC/C=C\CC1=C(C)CCC1=O [CJN, cis-jasmone]	14.7 a grams	12.8 a grams	17.69 a grams	19.2	21.7 a grams	increased clipping weights	213.5 a grams	90	23.3	30.0	60.0	70.0	significantly increases lodging				
CCOC(=O)C1CC(=O)C(=C(O)C2CC2)C(=O)C1 (stereo not drawn) [TXP, trinexapac-ethyl, reference compound]	10.71 grams	9.27 d grams	11.35 grams	18.2	18.1 grams		173 def grams	90						0.0	6.7	6.7	10.0

Reference: patent publication US20140213453A1, “PLANT GROWTH REGULATION” (SYNGENTA PARTICIPATIONS AG, priority 2011, published 2014)
